The results in this text go back to patent US7390411B2, “Method for preparing a compound of interaction of active substances with a porous support using supercritical fluid” (Pierre Fabre Medicament, priority 2001, dated 2008).

Holding throughout (assay type): physicochemical
Data set [1] is described as follows: Dissolution tests on product F12511 (HPLC, 5% sodium lauryl sulfate, 2 hours). The procedure:
Dissolution Tests on Product F12511
Spectrophotometric detector set at 220 nm.
C8 graft column (Lichrospher 60RP-Select B), dimensions 25×0.4 cm, particle size: 5 μm.
Flow Rate: 1 ml/min Preparation of Solutions: Solution Under Examination
Introduce an amount of complex corresponding to approximately 100 mg of product F12511 into 100 ml of 5% (m/V) sodium lauryl sulfate in H2O. Subject the system to magnetic stirring in a waterbath at 37° C.±0.5° C. Withdraw 2 ml sample of this suspension after 2 hours of stirring and filter it on a Gelman GHP Acrodisc GF (R) filter.
Dilute the samples 1/5 in the mobile phase. Carry out 2 tests.
Introduce 8 mg of reference product F12511 (starting material used to prepare the complex) in a 100 ml flask and dissolve it in 1 ml of tetrahydrofuran (THF). Make up to volume with the mobile phase.
Inject 20 μl of each control solution. Measure the area of the peak of product F12511 and represent its variation as a function of concentration in the form of a graph. The correlation coefficient is>0.995. Inject 20 μl of the test solution. Measure the area of the peak of product F12511 present in the test solution, and ensure that it lies between that of T1 and of T5 in the range.
If this is not the case, perform a dilution in the solubilizing solvent and/or adjust the injection volume of the test solution.
From this, work out the concentration X (μg/ml) of the test solution.
Calculate the amount of dissolved product F12511 in mg/ml by the following formula:
[formula] • Y: injection volume of the test solution • F: dilution factor Measurements of Specific Surface Areas

Data set [2] in a line: Measurements of specific surface areas (BET). Particulars: specific surface area. The procedure: The specific surface area measurements were carried out on a BET ASAP 2010 adsorption apparatus from Micrometrics.
Before the measuring phase, the sample requires a degassing step. This step consists in evacuating the cell containing the sample until a vacuum of at least 0.003 mm Hg, or approximately 0.004 mbar, is reached stably. This degassing is carried out at a temperature of 50° C. (duration: approximately 16 hours).
At the end of degassing, the cell containing the sample is filled with helium and transferred to the measuring station, where evacuation is repeated before analysis.
Processing of the Adsorption Isotherms
The specific surface area was determined in accordance with the BET theory, i.e., in accordance with the following relationship:
[formula] • W: volume of gas adsorbed (under standard temperature and pressure (STP) conditions) per unit mass of sample. • Wm: volume of gas adsorbed (under STP conditions) in a monolayer per unit mass of sample. • P0: saturation pressure. • C: constant.
The isotherm is then plotted as follows:
As a function of P/P0: we then have a straight line of which the slope and the ordinate at the origin give us C and Wm.
The specific surface area is then given by the following formula: a(m^2·g^−1)=NmNAE • E: space occupancy of the nitrogen molecule. For nitrogen at 77 K operating temperature this is generally taken to be E=0.162 nm^2. • NA: Avogadro's number. • Nm: number of moles of nitrogen adsorbed on a monolayer per unit mass of sample, calculated from Wm. The measurements are carried out within a conventional field of relative pressure in which the BET theory is valid, namely 0.05<P/P0<0.2. In order to verify the validity of this theory, one practical means is to look at the direction in which the quantity Nadsorbed. (1-P/P0) changes as a function of P/P0: it should increase continually with P/P0.
Verify the range of applicability of the BET theory in this way, and if necessary readjust the range of relative pressures.

Data set [3] can be described thus: Dissolution test ketoprofen powders (UV 260 nm). To be noted: water, 37° C. The procedure: Powder Analysis Protocol: Dissolution Test Operating conditions:
UV analysis at a wavelength of 260 nm.
Prepare a standard solution in H2O. Ensure that an absorbance<2 is maintained.
(§1) Execution of the Analysis:
(§2) Dissolve the powder with magnetic stirring using a stirrer bar in a waterbath at 37±0.5° C.
(§3) Withdraw 2 ml of this suspension after 2 hours of stirring and filter it on a 0.45 μm Gelman GHP filter. Carry out the UV analysis, ensuring that the absorbance is less than 2. If it is not, carry out dilution.

Data set [4] can be described thus: Dissolution test terfenadine powders (UV 259 nm). To be noted: water, 37° C. The procedure:
Powder Analysis Protocol: Dissolution Test Operating Conditions:
UV analysis at a wavelength of 259 nm.
Prepare a standard solution in 1% (m/v) sodium lauryl sulfate in H2O. Ensure that an absorbance<2 is maintained.
as §1, §2, §3

Where [5] appears, read: Comparative Example 1, 2 hours, 5% sodium lauryl sulfate, 37° C.
The mark [6] stands for this setting: Comparative Example 2, dissolution after two hours, 5% sodium lauryl sulfate, 37° C.

In brackets after ≈: the same amount, converted by molar mass. Bounds are passed on as bounds.

Regarding `CCCCCCCCCCCCS[C@H](C(=O)Nc1cc(C)c(O)c(C)c1C)c1ccccc1`, the Dissolution in data set [1] (Comparative Example 5 (F12511 generated by SAS/ethanol), 2 hours, 5% sodium lauryl sulfate, 37° C.) worked out at 80 µg/mL; in data set [1] (Comparative Example 6 (F12511 generated by SAS/DMSO), 2 hours, 5% sodium lauryl sulfate, 37° C.), 57 µg/mL; in data set [1] (Comparative Example 7 (F12511 generated by RESS), 2 hours, 5% sodium lauryl sulfate, 37° C.), 8 µg/mL.

For `CCCCCCCCCCCCS[C@H](C(=O)Nc1cc(C)c(O)c(C)c1C)c1ccccc1` [Example F12511, (S)-2′,3′,5′-trimethyl-4′-hydroxy-α-dodecylthiophenyl-acetanilide], the Dissolution was 6 to 12 µg/mL in data set [1] (setting [5]); 12 µg/mL in data set [1] (setting [6]); 12 µg/mL in data set [1] (Comparative Example 3, 2 hours, 5% sodium lauryl sulfate, 37° C.); roughly 15 µg/mL in data set [1] (Comparative Example 5 (F12511 generated by SAS/ethanol), 2 hours, 5% sodium lauryl sulfate, 37° C., listed as F12511 before precipitation); 5 µg/mL in data set [1] (Comparative Example 6 (F12511 generated by SAS/DMSO), 2 hours, 5% sodium lauryl sulfate, 37° C., listed as F12511 before precipitation); roughly 10 µg/mL in data set [1] (Comparative Example 7 (F12511 generated by RESS), 2 hours, 5% sodium lauryl sulfate, 37° C., listed as F12511 before precipitation). Moreover, the Dissolution in data set [1] (Example 4 (coprecipitation SAS/DMSO with γ-cyclodextrin), 2 hours, 5% sodium lauryl sulfate, 37° C.) is roughly 15 µg/mL. Besides, the “Dissolution of 2 hours, Active principle alone” value in data set [1] (F12511 alone) stood at 12 µg/mL. Besides, the “solubility after 2 hours in 5% aqueous sodium lauryl sulfate solution” value in data set [1] (after 2 hours, 5% aqueous sodium lauryl sulfate) came out at 6 µg/mL (≈ 12.8 µM). The BET in data set [2] (Comparative Example 1) and in data set [2] (Comparative Example 2) was 14 m^2/g throughout.

As to `CCCCCCCCCCCCS[C@H](C(=O)Nc1cc(C)c(O)c(C)c1C)c1ccccc1` [F12511 precipitated by RESS], the Dissolution in data set [1] (setting [6]) worked out at 76 µg/mL; in data set [1] (summary table, powder after precipitation or coprecipitation only, no molecular diffusion, listed as Comp. Ex. 2), 76 µg/mL. Besides, the BET in data set [2] (Comparative Example 2) came to 67 m^2/g.

In the case of `CCCCCCCCCCCCS[C@H](C(=O)Nc1cc(C)c(O)c(C)c1C)c1ccccc1` [F12511 precipitated by SAS], the Dissolution came to 62 µg/mL in data set [1] (setting [5]) and 62 µg/mL in data set [1] (summary table, powder after precipitation or coprecipitation only, no molecular diffusion). In data set [2] (Comparative Example 1), this molecule showed a BET of 54 m^2/g.

In the case of `CC(C(=O)O)c1cccc(C(=O)c2ccccc2)c1` (stereo not shown) [Ketoprofen], the “concentration after 2 hours of dissolution, Active principle alone” value in data set [3] was determined as 333 µg/mL.

For the molecule `CC(C)(C)c1ccc(C(O)CCCN2CCC(C(O)(c3ccccc3)c3ccccc3)CC2)cc1` (stereo not shown) [Terfenadine], the “concentration after 2 hours of dissolution, Active principle alone” value in data set [4] is less than 1 µg/mL.
